PubChem BioAssay AID248 (DTP/NCI, 2004)
“And” between values parts separate entries of the source, which are not always exact repeats. Equal values may be shown once. Toxic doses and inconclusive results are not listed. No stated cut-off is given here; in the data, active means T/C of 150% or more; inactive means T/C below 125%.

Test system: L1210 leukemia ip in BDF1 mice, survival T/C
Test: NCI In Vivo Anticancer Drug Screen. Data for tumor model L1210 Leukemia (intraperitoneal) in B6D2F1 (BDF1) mice
Conditions: endpoint: mean survival time, higher = longer survival
Procedure, shortened: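 Survival endpoint. Drug-treated group vs vehicle group, expressed as T divided by C. Tumor passaged by transplantation.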

[1] = dose: 100.0 mg/kg/injection, schedule: Q04DX003 (ip), vehicle: saline with Tween-80
[2] = dose: 200.0 mg/kg/injection, schedule: Q04DX003 (ip), vehicle: saline with Tween-80
[3] = dose: 400.0 mg/kg/injection, schedule: Q04DX003 (ip), vehicle: saline with Tween-80
[4] = dose: 50.0 mg/kg/injection, schedule: Q01DX009 (ip), vehicle: saline
[5] = dose: 100.0 mg/kg/injection, schedule: Q04DX002 (ip), vehicle: Klucel (hydroxypropylcellulose) (HPC)
[6] = dose: 200.0 mg/kg/injection, schedule: Q04DX002 (ip), vehicle: Klucel (hydroxypropylcellulose) (HPC)
[7] = dose: 100.0 mg/kg/injection, schedule: Q04DX003 (ip), vehicle: saline
[8] = dose: 200.0 mg/kg/injection, schedule: Q04DX003 (ip), vehicle: saline
[9] = dose: 100.0 mg/kg/injection, schedule: Q01DX001 (ip), vehicle: saline
[10] = dose: 200.0 mg/kg/injection, schedule: Q01DX001 (ip), vehicle: saline
[11] = dose: 400.0 mg/kg/injection, schedule: Q01DX001 (ip), vehicle: saline
[12] = dose: 100.0 mg/kg/injection, schedule: Q04DX003 (ip), vehicle: Klucel (hydroxypropylcellulose) (HPC)
[13] = dose: 200.0 mg/kg/injection, schedule: Q04DX003 (ip), vehicle: Klucel (hydroxypropylcellulose) (HPC)
[14] = dose: 400.0 mg/kg/injection, schedule: Q04DX003 (ip), vehicle: Klucel (hydroxypropylcellulose) (HPC)
[15] = dose: 100.0 mg/kg/injection, schedule: Q01DX009 (ip), vehicle: saline with Tween-80
[16] = dose: 200.0 mg/kg/injection, schedule: Q01DX009 (ip), vehicle: saline with Tween-80
[17] = dose: 400.0 mg/kg/injection, schedule: Q01DX009 (ip), vehicle: saline with Tween-80

Measured: T/C

CN1CCC(CNC(=O)CCCCCCCCC(=O)NCC2(c3ccccc3)CCN(C)CC2)(c2ccccc2)CC1
inactive: dose: 0.63 mg/kg/injection, schedule: Q01DX Z (ip), vehicle: saline 89 % of control | dose: 1.25 mg/kg/injection, schedule: Q01DX Z (ip), vehicle: saline 89 % of control | dose: 2.5 mg/kg/injection, schedule: Q01DX Z (ip), vehicle: saline 88 % of control | dose: 5.0 mg/kg/injection, schedule: Q01DX Z (ip), vehicle: saline 86 % of control | dose: 5.0 mg/kg/injection, schedule: Q04DX003 (ip), vehicle: saline with Tween-80 102 % of control

CC(=O)c1ccc2ccc3cccc4ccc1c2c34
inactive: dose: 100.0 mg/kg/injection, schedule: Q04DX002 (ip), vehicle: gum acacia 96 % of control | dose: 200.0 mg/kg/injection, schedule: Q04DX002 (ip), vehicle: gum acacia 96 % of control | dose: 400.0 mg/kg/injection, schedule: Q04DX002 (ip), vehicle: gum acacia 93 % of control

Cc1ccc(S(=O)(=O)OC2COC3C2OC2OC(C)(C)OC23)cc1 (stereo not given)
inactive: [1] 112 % of control | [2] 101 % of control | [3] 106 % of control

NCCCCC(N)C(=O)NCCCNCCCCNCCCNC(=O)C(N)CCCCN (stereo not given)
inactive: dose: 3.0 mg/kg/injection, schedule: Q01DX Z (ip), vehicle: saline 104 % of control | dose: 10.0 mg/kg/injection, schedule: Q01DX Z (ip), vehicle: saline 94 % of control | dose: 30.0 mg/kg/injection, schedule: Q01DX Z (ip), vehicle: saline 93 % of control | dose: 100.0 mg/kg/injection, schedule: Q01DX Z (ip), vehicle: saline 106 % of control

N#CCCC1C(C#N)C2CC1C1C3CCC(C3)C21 (stereo not given)
inactive: dose: 100.0 mg/kg/injection, schedule: Q01DX009 (ip), vehicle: other 100 % of control | dose: 200.0 mg/kg/injection, schedule: Q01DX009 (ip), vehicle: other 101 % of control | dose: 400.0 mg/kg/injection, schedule: Q01DX009 (ip), vehicle: other 90 % of control

C=CC[N+]12CCCC1C(=C)CC2 (stereo not given)
inactive: dose: 12.5 mg/kg/injection, schedule: Q01DX009 (ip), vehicle: saline 106 % of control | dose: 25.0 mg/kg/injection, schedule: Q01DX009 (ip), vehicle: saline 100 % of control | [4] 97 % of control and 106 % of control

CN(C(=O)C1C(C(=O)O)C2(Cl)C(Cl)=C(Cl)C1(Cl)C2(Cl)Cl)C1CCCCC1 (stereo not given)
inactive: [5] 110 % of control | [6] 98 % of control

NC(c1ccccc1)c1ccccc1
inactive: [7] 104 % of control | [8] 95 % of control

COc1ccc(N2CCN(c3c4c(nc5ccccc35)CCCCC4)CC2)cc1
inactive: [9] 95 % of control | [10] 106 % of control | [11] 101 % of control

CCCCCCCC/C=C\CCCCCCCCOC(=O)Cc1ccc(N(CCCl)CCCl)cc1
inactive: dose: 100.0 mg/kg/injection, schedule: Q01DX005 (ip), vehicle: Klucel (hydroxypropylcellulose) (HPC) 119 % of control | [5] 121 % of control | dose: 200.0 mg/kg/injection, schedule: Q01DX005 (ip), vehicle: Klucel (hydroxypropylcellulose) (HPC) 115 % of control | [6] 117 % of control | dose: 400.0 mg/kg/injection, schedule: Q04DX002 (ip), vehicle: Klucel (hydroxypropylcellulose) (HPC) 121 % of control

CN(C)C(=O)c1cc[n+](Cc2ccc(Cl)cc2)cc1
inactive: [7] 98 % of control

CCCCOCN1CCCCC1
inactive: dose: 31.0 mg/kg/injection, schedule: Q01DX Z (ip), vehicle: carboxymethylcellulose (CMC) 95 % of control | dose: 62.5 mg/kg/injection, schedule: Q01DX Z (ip), vehicle: carboxymethylcellulose (CMC) 101 % of control | [1] 111 % of control | dose: 125.0 mg/kg/injection, schedule: Q01DX Z (ip), vehicle: carboxymethylcellulose (CMC) 105 % of control | [2] 102 % of control

COc1ccc(NC(=O)NNC(=O)CCCC(=O)NNC(=O)Nc2ccc(OC)cc2)cc1
inactive: dose: 50.0 mg/kg/injection, schedule: Q01DX001 (ip), vehicle: saline 112 % of control | [9] 102 % of control | [10] 93 % of control | [11] 93 % of control

CCOC(=O)C1C(O)=C(C(=O)Nc2ccccc2)C(=O)C(C(=O)O)C1C1CC=CCC1 (stereo not given)
inactive: dose: 100.0 mg/kg/injection, schedule: Q01DX001 (ip), vehicle: other 97 % of control | [1] 94 % of control | dose: 200.0 mg/kg/injection, schedule: Q01DX001 (ip), vehicle: other 100 % of control | [2] 103 % of control | [3] 100 % of control

CC(O)NC(=O)C1CC2c3cccc4[nH]cc(c34)CC2N(C)C1 (stereo not given)
inactive: [12] 100 % of control | [13] 97 % of control | [14] 105 % of control

COC(=O)C1CC2(CNc3ccccc32)CN1C (stereo not given)
inactive: [12] 90 % of control | [13] 89 % of control | [14] 89 % of control

O=C(O)C(Br)C(Br)c1ccccc1 (stereo not given)
inactive: [1] 101 % of control | [2] 106 % of control | [3] 96 % of control

CC/C=C(\C)C1(CC)C(=O)N=C(N)NC1=O (stereo not given)
inactive: dose: 150.0 mg/kg/injection, schedule: Q01DX001 (ip), vehicle: saline 105 % of control

O=C1CCCCC1Oc1ccccc1 (stereo not given)
inactive: [15] 95 % of control | [1] 95 % of control | [16] 101 % of control | [2] 98 % of control | [17] 86 % of control | [3] 93 % of control

O=C1C(Cl)=C(NCc2ccco2)C(=O)c2ccccc21
inactive: dose: 77.0 mg/kg/injection, schedule: Q01DX Z (ip), vehicle: methylcellulose (MC) 89 % of control | dose: 116.0 mg/kg/injection, schedule: Q01DX Z (ip), vehicle: methylcellulose (MC) 87 % of control | dose: 175.0 mg/kg/injection, schedule: Q01DX Z (ip), vehicle: methylcellulose (MC) 95 % of control

O=C(/C=C/c1cccc([N+](=O)[O-])c1)Nc1cccnc1
inactive: dose: 100.0 mg/kg/injection, schedule: Q01DX009 (ip), vehicle: gum acacia 90 % of control | dose: 200.0 mg/kg/injection, schedule: Q01DX009 (ip), vehicle: gum acacia 96 % of control | dose: 400.0 mg/kg/injection, schedule: Q01DX009 (ip), vehicle: gum acacia 94 % of control

CSC(N)=S
inactive: [4] 96 % of control | dose: 50.0 mg/kg/injection, schedule: Q04DX003 (ip), vehicle: saline 97 % of control | dose: 100.0 mg/kg/injection, schedule: Q01DX009 (ip), vehicle: saline 94 % of control | [7] 99 % of control | [8] 99 % of control

NC(c1ccccc1)C(N)c1ccccc1 (stereo not given)
inactive: dose: 50.0 mg/kg/injection, schedule: Q01DX009 (ip), vehicle: saline with Tween-80 104 % of control | [15] 102 % of control and 92 % of control | dose: 100.0 mg/kg/injection, schedule: Q04DX003 (ip), vehicle: other 91 % of control | [1] 98 % of control | [16] 95 % of control and 110 % of control | [2] 96 % of control | [17] 98 % of control

O=C(Nc1cccnc1)Nc1ccc(Cl)c(Cl)c1
inactive: [12] 98 % of control | [13] 93 % of control | [14] 94 % of control
